Columns and labels:
Assay type in all cases: cell-based, human
[1] = test system: HCT 116 cells transduced with the PDE5A DD derived GFP constructs; test: Response to Vardenafil, GFP expression by FACS in HCT116; details: for MFI / Stabilization ratio with Vardenafil: 48 hours, HCT116
Description: (§1) Mutations were created in PDE5A (535-860) catalytic domain using site directed mutagenesis and the mutants were cloned as AcGFP fusion into pELNS vector carrying mCherry marker and packaged in lentiviral vectors. HCT116 cells were transduced with the constructs and stable integrants were selected by cell sorting using mCherry marker. Cells were treated with vehicle (dimethyl sulfoxide, DMSO) or 10 μM Vardenafil (VDF) for 48 hours. Following the treatment, cells were analyzed for GFP expression using FACS. Basal expression was calculated as the ratio of GFP signal in the absence of ligand for a given cell line to auto fluorescence of parental HCT-116 cells. Stabilization ratio was calculated as the ratio of the GFP signal observed in the presence of stabilizing ligand to the signal from the same cell line in the absence of ligand.
HCT 116 cells transduced with the PDE5A DD derived GFP constructs were also tested with increasing doses of Vardenafil. The HCT116 cells were incubated for 48 hours with Vardenafil starting at a dose of 0.002 μM to 30 μM. The GFP intensity of the Vardenafil treated samples was compared to the parental untransduced HCT116 and DMSO treated cells for each construct. The mean fluorescence intensity was calculated for each sample and used to calculate the stabilization ratios as well as the basal expression for each construct. The GFP expression was measured using flow cytometry and the mean fluorescence intensity (MFI) was calculated for each sample. The stabilization ratios are shown in Table 13 and Table 14 and the basal expression is show in Table 15.

[2] = test system: HCT 116 cells transduced with the PDE5A DD derived GFP constructs; test: Response to Tadalafil, GFP expression by FACS in HCT116; details: for MFI / Stabilization ratio with Tadalafil: 48 hours, HCT116
Description: as §1, with “PDE5AN (#3) was” for “Mutations were created in PDE5A (535-860) catalytic domain using site directed mutagenesis and the mutants were”, “construct” for “constructs”, “varying doses of Tadalafil (TDF)” for “10 μM Vardenafil (VDF)”, “hrs with doses ranging from 0.01 μM to 100 μM.” for “hours.”
HCT 116 cells transduced with the PDE5A DD derived GFP constructs were also tested with increasing doses of Tadalafil. The HCT116 cells were incubated for 48 hours with Tadalafil starting at dose 0.01 μM to 100 μM. The GFP intensity of the Tadalafil treated samples was compared to the parental untransduced HCT116 and DMSO treated cells for each construct. The mean fluorescence intensity was calculated for each sample and used to calculate the stabilization ratios as well as the basal expression for each construct. The stabilization ratios are shown in Table 19 and Table 20 and the basal expression is show in Table 21.

[3] = test system: HCT116 cells transduced with the constructs; test: Response to Sildenafil, GFP expression by flow cytometry in HCT116; details: for MFI / Stabilization ratio with Sildenafil: 48 hours, HCT116
Description: Similar experiments were performed in HCT116 cells using sildenafil. The above-mentioned DDs were cloned as AcGFP fusion into pELNS vector carrying mCherry marker and packaged in lentiviral vectors. HCT116 cells were transduced with the constructs and stable integrants were selected by cell sorting using mCherry marker. Cells were treated with sildenafil at the following μM concentrations: 0.01, 0.02, 0.05, 0.14, 0.41, 1.23, 3.7, 11.11, 33.33, and 100 for a duration of 48 hours. The fluorescence was analyzed by flow cytometry and the mean fluorescence intensity was calculated for all samples. […] The stabilization ratios are shown in Table 24 and Table 25 and the basal expression is show in Table 26.

In the case of “PDE5AC (#25): AcGFP fused to C-terminal DD 535-860 of PDE5A (Q541R, F559L, Q589R, H678R, I824T), SEQ ID NO. 35”, the MFI ([1]; DMSO (no Vardenafil)) was 9555, the Basal ([1]; Table 15, MFI with DMSO / parental HCT116, Vardenafil experiment) was 4.89 and the “Stabilization ratio with Vardenafil” value ([1]; Vardenafil 0.002 μM vs DMSO) was 1.0. The MFI ([1]; Vardenafil 0.002 μM) was 9737, the “Stabilization ratio with Vardenafil” value ([1]; Vardenafil 0.005 μM vs DMSO) was 1.0 and the MFI ([1]; Vardenafil 0.005 μM) was 9694. For the same substance, the “Stabilization ratio with Vardenafil” value ([1]; Vardenafil 0.014 μM vs DMSO) was 1.0, the MFI ([1]; Vardenafil 0.014 μM) was 9767 and the “Stabilization ratio with Vardenafil” value ([1]; Vardenafil 0.041 μM vs DMSO) was 1.1. The MFI ([1]; Vardenafil 0.041 μM) was 10468, the “Stabilization ratio with Vardenafil” value ([1]; Vardenafil 0.123 μM vs DMSO) was 1.4 and the MFI ([1]; Vardenafil 0.123 μM) was 13348. For the same substance, the “Stabilization ratio with Vardenafil” value ([1]; Vardenafil 0.370 μM vs DMSO) was 2.1, the MFI ([1]; Vardenafil 0.370 μM) was 20522 and the “Stabilization ratio with Vardenafil” value ([1]; Vardenafil 1.111 μM vs DMSO) was 4.1. The MFI ([1]; Vardenafil 1.111 μM) was 38958, the “Stabilization ratio with Vardenafil” value ([1]; Vardenafil 3.333 μM vs DMSO) was 6.9 and the MFI ([1]; Vardenafil 3.333 μM) was 66337. The “Stabilization ratio with Vardenafil” value ([1]; Vardenafil 10 μM vs DMSO) was 9.9, the MFI ([1]; Vardenafil 10 μM) was 94642 and the “Stabilization ratio with Vardenafil” value ([1]; Vardenafil 30 μM vs DMSO) was 12.7. The MFI ([1]; Vardenafil 30 μM) was 120927, the MFI ([2]; DMSO (no Tadalafil)) was 9297 and the “Basal expression” value ([2]; Table 21, MFI with DMSO / parental HCT116, Tadalafil experiment) was 7.26. For the same substance, the “Stabilization ratio with Tadalafil” value ([2]; Tadalafil 0.01 μM vs DMSO) was 1.0, the MFI ([2]; Tadalafil 0.01 μM) was 9233 and the “Stabilization ratio with Tadalafil” value ([2]; Tadalafil 0.02 μM vs DMSO) was 1.0. For the same substance, the MFI ([2]; Tadalafil 0.02 μM) was 8860, the “Stabilization ratio with Tadalafil” value ([2]; Tadalafil 0.05 μM vs DMSO) was 1.0 and the MFI ([2]; Tadalafil 0.05 μM) was 9404. The “Stabilization ratio with Tadalafil” value ([2]; Tadalafil 0.14 μM vs DMSO) was 1.0, the MFI ([2]; Tadalafil 0.14 μM) was 9478 and the “Stabilization ratio with Tadalafil” value ([2]; Tadalafil 0.41 μM vs DMSO) was 1.1. For the same substance, the MFI ([2]; Tadalafil 0.41 μM) was 9858, the “Stabilization ratio with Tadalafil” value ([2]; Tadalafil 1.23 μM vs DMSO) was 1.3 and the MFI ([2]; Tadalafil 1.23 μM) was 12432. For the same substance, the “Stabilization ratio with Tadalafil” value ([2]; Tadalafil 3.7 μM vs DMSO) was 2.1, the MFI ([2]; Tadalafil 3.7 μM) was 19294 and the “Stabilization ratio with Tadalafil” value ([2]; Tadalafil 11.11 μM vs DMSO) was 3.4. For the same substance, the MFI ([2]; Tadalafil 11.11 μM) was 31763, the “Stabilization ratio with Tadalafil” value ([2]; Tadalafil 33.33 μM vs DMSO) was 5.8 and the MFI ([2]; Tadalafil 33.33 μM) was 54151. For the same substance, the “Stabilization ratio with Tadalafil” value ([2]; Tadalafil 100 μM vs DMSO) was 7.6, the “Stabilization ratio with Tadalafil” value ([2]; Tadalafil 100 μM vs DMSO, listed as PDE5AN (#25)) was “highest stabilization ratio” and the MFI ([2]; Tadalafil 100 μM) was 70389. For the same substance, the MFI ([3]; DMSO (no Sildenafil)) was 10217, the “Stabilization ratio with Sildenafil” value ([3]; Sildenafil 0.01 μM vs DMSO) was 1.0 and the MFI ([3]; Sildenafil 0.01 μM) was 10169. The “Stabilization ratio with Sildenafil” value ([3]; Sildenafil 0.02 μM vs DMSO) was 0.9, the MFI ([3]; Sildenafil 0.02 μM) was 9354 and the “Stabilization ratio with Sildenafil” value ([3]; Sildenafil 0.05 μM vs DMSO) was 1.0. For the same substance, the MFI ([3]; Sildenafil 0.05 μM) was 10120, the “Stabilization ratio with Sildenafil” value ([3]; Sildenafil 0.14 μM vs DMSO) was 1.0 and the MFI ([3]; Sildenafil 0.14 μM) was 10128. The “Stabilization ratio with Sildenafil” value ([3]; Sildenafil 0.41 μM vs DMSO) was 1.0, the MFI ([3]; Sildenafil 0.41 μM) was 10207 and the “Stabilization ratio with Sildenafil” value ([3]; Sildenafil 1.23 μM vs DMSO) was 1.2. The MFI ([3]; Sildenafil 1.23 μM) was 12328, the “Stabilization ratio with Sildenafil” value ([3]; Sildenafil 3.70 μM vs DMSO) was 1.7 and the MFI ([3]; Sildenafil 3.70 μM) was 17466. The “Stabilization ratio with Sildenafil” value ([3]; Sildenafil 11.11 μM vs DMSO) was 2.6, the MFI ([3]; Sildenafil 11.11 μM) was 26947 and the “Stabilization ratio with Sildenafil” value ([3]; Sildenafil 33.33 μM vs DMSO) was 4.6. The MFI ([3]; Sildenafil 33.33 μM) was 46897, the “Stabilization ratio with Sildenafil” value ([3]; Sildenafil 100.00 μM vs DMSO) was 5.1 and the MFI ([3]; Sildenafil 100.00 μM) was 51774. For the same substance, the Basal expression ([3]; Table 26, MFI with DMSO / parental HCT116, Sildenafil experiment) was 7.9.

Reference: patent US11891634B2, “PDE5A destabilizing domains” (The Board of Trustees of the Leland Stanford Junior …, priority 2017, dated 2024)
